# Legend:
# [1] = test system: HeLa cell line transfected with the amyloid precursor protein (APP); experiment: MTT cell proliferation assay (cell death); assay type: cell-based; settings: 5 μg/ml, 8 hours
# Procedure: To test the effect of Justicidin A and 5-methoxyJusticidin A on cell death, the MTT Cell Proliferation assay method (ATCC catalog #30-1010K, Manassas, USA) was used. Specifically, the HeLa cell line transfected with the amyloid precursor protein (APP) driven from human was treated with various concentrations of Justicidin A (S62-C1) or 5-methoxyJusticitdin A (S62-C2) for 8 hours, and the viable cells were quantified to show the result in FIG. 3.
# [2] = test system: alpha-secretase product (sAPPα); experiment: Alpha-secretase product (sAPPα) production, Western blotting; assay type: cell-based, human; settings: 8 hours, concentrations of FIG. 5
# Procedure: The test result confirmed that Justicidin A (C1) obtained in Example 2 and 5-methoxyJusticidin A increased alpha-secretase product (sAPPα). Specifically, the produced amount of sAPPα was measured by treating the cultured cell line (the HeLa cell line transfected with the amyloid precursor protein (APP) driven from human) with Justicidin A (S62-C1) or 5-methoxyJusticitdin A (S62-C2) at a concentration of FIG. 5, culturing it for 8 hours, and measuring the produced amount of sAPPα according to the Western blotting. The negative control was the group with no treatment of Justicidin A or 5-methoxyJusticidin A.
# [3] = test system: O-glycosylated maAPP; experiment: APP O-glycosylation, O-glycosylation antibody then APP Western blotting; assay type: cell-based, human; settings: 1, 5, 10 uM, 4 hrs
# Procedure: According to the same method as above, HeLa cell line was treated with 1, 5, 10 uM of Justicidin A for 4 hrs. Then, the 5 ul of O-glycosylation antibody (#MMS-248R, Covance) was added to 500 ug of the separated plasma membrane protein, and performed by electrophoresis and the western blotting using the APP antibody (1:2000 diluted, A8717, Sigma).
# [4] = test system: PC12 cell; experiment: Cell viability assay, Cell counting kit-8; assay type: cell-based; settings: 125 nM to 1000 nM, 24 hrs
# Procedure: Firstly, cell viability assay was performed for identifying whether Justicidin A had toxicity to normal brain cell line. Cell viability assay performed using Cell counting kit-8 (CCK-8, WST-8, Kamimashikigun, Kumamoto, Japan). More particularly, 1.5×10^4 cells of PC12 (Cell No. RCB0009, RIKEN BRC Cell Bank, Tsukuba, Ibaraki, Japan) were seeded to each well of 96-well plate, and incubated for 24 hrs. Then various concentrations of Justicidin A were treated for 24 hrs, and measured by Cell counting kit-8.
# [5] = test system: male ICR mouse; experiment: Morris water maze test, scopolamine-impaired memory model; assay type: in vivo; settings: oral, 1, 5, 10 and 20 mg/kg, compared to scopolamine group
# Procedure: The male ICR mouse was 5 to 6-week age (25-30 g of body weight) (Orientbio Inc., Seougnam, Republic of Korea), and was raised with solid feed and tap water for 1 week before being used for test. At a first day, the normal control group and the group administered by the scopolamine were fed with 5% (v/v) DMSO-saline, the test group was orally administered by 1, 5, 10 and 20 mg/kg/10 ml of Justicidin A (C1) in 5% DMSO-Saline, and the comparative group was administered with 2 mg/kg/10 ml of Donepezil (brand name: Aricept, Eisai) being commercially available as a drug for treating an dementia of the Alzheimer's type. […]
# The same test was performed repetitively twice per a day for 4 days as an Acquisition Test, and the entire test was automatically recorded and analyzed with Noldus Ethovision 7.0 program (Noldus Information Technology, USA).
# In addition, after finishing the Acquisition Test performed for four (4) days, the Probe test was carried out at fifth day. […] The whole test procedure was automatically recorded and analyzed with Noldus Ethovision 7.0 program (Noldus Information Technology, USA).
# [6] = test system: male ICR mouse; experiment: Novel object recognition test, scopolamine-impaired memory model; assay type: in vivo; settings: oral, 10 mg/kg and 20 mg/kg; compared with 2 mg/kg Donepezil
# Procedure: The male ICR mouse was 5 to 6-week age (25˜30 g of body weight) (Orientbio Inc., Seougnam, Republic of Korea), and was raised with solid feed and tap water for 1 week before being used for test. For 3 days before the test, each mouse to get adjusted to Arena (grey mat acryl material, 50 cm×50 cm×60 cm) went freely into the Arena for 10 minutes per a day.
# At a first day, the normal control group and the group administered by the scopolamine were fed with 5% (v/v) DMSO-saline, the test group was orally administered by 1, 5, 10 and 20 mg/kg/10 ml of Justicidin A (C1) in 5% DMSO-Saline, and the comparative group was administered with 2 mg/kg/10 ml of Donepezil (brand name: Aricept, Eisai) being commercially available as a drug for treating an dementia of the Alzheimer's type. After 30 minutes, the groups were intraperitoneally injected by scopolamine (Sigma-Aldrich Chemical Co., St Louis, USA) at 1 mg/kg/10 ml. […]
# At the second day, the mice were dropped into the Arena without treatment of additional drug and scopolamine. […] Entire test was automatically recorded and analyzed with Noldus Ethovision 7.0 program (Noldus Information Technology, USA). The time when the mice sought the object in 3 minutes after dropping two objects at second day of test were measured and calculated as Memory Index (%, ratio of time for Novel object recognition to entire time for recognition). […]
structure (smiles),measurement,setting,value
COc1cc2c(OC)c3c(c(-c4ccc5c(c4)OCO5)c2cc1OC)C(=O)OC3 [Justicidin A],cell lines died,[1],≤ 20%
same,formation of alpha-secretase product (sAPPα),[2],activated the formation of alpha-secretase product (sAPPα)
same,O-glycosylated maAPP,[3],the O-glycosylated maAPP was increased
same,toxicity to PC12 cell,[4],has no toxicity to PC12 cell
same,memory and learning ability (acquisition and probe test),[5],equivalent or higher memory and learning ability
same,memory and learning ability (Memory Index),[6],showed high memory and learning ability
